Consider 53 compounds from PMC6814258 (Pharmaceutical research, 2019).

Where a name gives a salt, the structure may show the parent alone.

The target in the test is Nav1.8 (Homo sapiens, UniProt Q9Y5Y9). The test is described as follows: Nav1.8 FLIPR HTS. The conditions noted are these: HEK293, read-out: Average percent inhibition at 10 μM (Nav1.8). It is filed as cell-based.
Chain of Nav1.8 (Q9Y5Y9 whole entry): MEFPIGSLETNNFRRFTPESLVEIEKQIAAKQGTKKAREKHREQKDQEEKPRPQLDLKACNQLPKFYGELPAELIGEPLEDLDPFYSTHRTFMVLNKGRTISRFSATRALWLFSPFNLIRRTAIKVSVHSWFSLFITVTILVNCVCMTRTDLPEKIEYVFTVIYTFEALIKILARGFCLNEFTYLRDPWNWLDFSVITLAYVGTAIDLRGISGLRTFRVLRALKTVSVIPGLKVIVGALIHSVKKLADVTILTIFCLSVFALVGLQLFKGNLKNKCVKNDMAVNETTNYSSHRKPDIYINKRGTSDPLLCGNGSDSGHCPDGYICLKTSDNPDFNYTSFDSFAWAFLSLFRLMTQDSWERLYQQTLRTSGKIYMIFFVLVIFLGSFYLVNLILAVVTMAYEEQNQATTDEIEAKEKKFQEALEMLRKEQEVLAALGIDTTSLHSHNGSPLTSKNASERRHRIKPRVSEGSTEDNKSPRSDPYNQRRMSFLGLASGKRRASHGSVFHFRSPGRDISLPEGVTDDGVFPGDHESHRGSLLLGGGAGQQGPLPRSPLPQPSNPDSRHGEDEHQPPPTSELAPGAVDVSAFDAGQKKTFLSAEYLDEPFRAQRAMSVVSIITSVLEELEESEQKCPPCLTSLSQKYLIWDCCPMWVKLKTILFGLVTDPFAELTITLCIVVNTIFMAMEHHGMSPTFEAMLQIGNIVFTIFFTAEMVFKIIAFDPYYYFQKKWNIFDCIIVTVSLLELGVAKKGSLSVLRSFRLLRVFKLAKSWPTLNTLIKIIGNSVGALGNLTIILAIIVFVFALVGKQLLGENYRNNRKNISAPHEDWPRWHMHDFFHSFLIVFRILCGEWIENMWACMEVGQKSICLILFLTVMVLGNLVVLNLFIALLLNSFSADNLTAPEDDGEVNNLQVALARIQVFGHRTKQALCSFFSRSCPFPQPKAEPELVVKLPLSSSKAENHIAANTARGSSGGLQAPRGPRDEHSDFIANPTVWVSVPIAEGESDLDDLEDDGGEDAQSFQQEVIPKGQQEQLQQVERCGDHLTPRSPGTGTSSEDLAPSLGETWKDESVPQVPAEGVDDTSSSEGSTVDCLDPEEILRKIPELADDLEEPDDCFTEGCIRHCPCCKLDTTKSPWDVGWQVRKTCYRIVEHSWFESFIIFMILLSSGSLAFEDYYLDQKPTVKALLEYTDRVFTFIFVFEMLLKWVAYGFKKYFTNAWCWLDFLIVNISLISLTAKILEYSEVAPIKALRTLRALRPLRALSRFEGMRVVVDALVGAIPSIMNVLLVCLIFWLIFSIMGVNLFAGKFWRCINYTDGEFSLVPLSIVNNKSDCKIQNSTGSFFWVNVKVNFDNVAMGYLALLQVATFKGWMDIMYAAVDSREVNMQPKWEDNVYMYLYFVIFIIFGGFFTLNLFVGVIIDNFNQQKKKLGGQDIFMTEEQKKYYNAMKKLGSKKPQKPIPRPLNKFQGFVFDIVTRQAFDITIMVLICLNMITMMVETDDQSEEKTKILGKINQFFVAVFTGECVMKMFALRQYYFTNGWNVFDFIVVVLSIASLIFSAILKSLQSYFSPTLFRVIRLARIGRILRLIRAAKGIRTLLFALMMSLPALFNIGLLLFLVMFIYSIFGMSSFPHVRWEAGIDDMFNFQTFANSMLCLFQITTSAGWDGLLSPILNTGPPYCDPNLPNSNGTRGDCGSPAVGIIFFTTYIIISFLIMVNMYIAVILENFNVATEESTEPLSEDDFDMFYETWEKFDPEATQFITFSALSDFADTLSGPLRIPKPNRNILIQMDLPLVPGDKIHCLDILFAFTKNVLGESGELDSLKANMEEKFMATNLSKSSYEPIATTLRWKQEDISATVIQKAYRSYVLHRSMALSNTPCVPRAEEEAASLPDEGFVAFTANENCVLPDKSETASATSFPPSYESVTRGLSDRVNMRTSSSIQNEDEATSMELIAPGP
By inhibition is commonly meant the change of the read-out against control, counted positive when it falls. For `CC(C)COCC(CN(Cc1ccccc1)c1ccccc1)N1CCCC1` (centres unmarked) [Bepridil hydrochloride], the inhibition at 10 µM was 89.1%.

As to `CCC(=O)O[C@@](Cc1ccccc1)(c1ccccc1)[C@@H](C)CN(C)C` [Levopropoxyphene napsylate], the inhibition at 10 µM was found to be 95.1%.

`CCN(CC)CC#CCOC(=O)C(O)(c1ccccc1)C1CCCCC1` (centres unmarked) [Oxybutynin chloride]: the inhibition at 10 µM came to 77.3%.

For the compound `CN1CCC(=C2c3ccccc3Sc3ccccc32)CC1` [Pimethixene maleate], the inhibition at 10 µM was determined as 88.5%.

On to `OC(CNCC(O)C1CCc2cc(F)ccc2O1)C1CCc2cc(F)ccc2O1` (centres unmarked) [Nebivolol hydrochloride], for which the inhibition at 10 µM was 82.7%.

Consider `O=c1cc(-c2ccc(O)c(O)c2)oc2cc(O)cc(O)c12` [Luteolin], for which the inhibition at 10 µM was determined as 86.2%.

In the case of `O=C(CCCN1CCC(n2c(O)nc3ccccc32)CC1)c1ccc(F)cc1` [Benperidol], the inhibition at 10 µM came out at 84.2%.

Regarding `CCCCCCNC(=O)n1cc(F)c(=O)[nH]c1=O` [Carmofur], the inhibition at 10 µM was found to be 124%.

For the compound `CCCCOc1cc(C(=O)NCCN(CC)CC)c2ccccc2n1` [Dibucaine], the inhibition at 10 µM is 79.4%.

In the case of `CCCCOc1cc(C(=O)OCCN(CC)CC)ccc1N` [Benoxinate hydrochloride], the inhibition at 10 µM came out at 83.7%.

In the case of `CCCCc1cc2ccccc2c(OCCN(C)C)n1` [Dimethisoquin hydrochloride], the inhibition at 10 µM stood at 75.5%.

As to `CCOC(=O)C1=C[C@]2(CC)CCCN3CCc4c(n1c1ccccc41)[C@@H]32` [Vinpocetine], the inhibition at 10 µM stood at 93.4%.

Take `CS(=O)(=O)c1ccc([C@@H](O)[C@@H](CF)NC(=O)C(Cl)Cl)cc1` [Florfenicol]: the inhibition at 10 µM amounted to 77.5%.

For the compound `CNCCCC1c2ccccc2C=Cc2ccccc21` [Protriptyline hydrochloride], the inhibition at 10 µM worked out at 80%.

For `CC(C)(C)NCC(O)c1ccc(O)c(CO)c1` (centres unmarked) [Salbutamol], the inhibition at 10 µM is 78%.

Consider `COc1ccccc1OCCNCC(O)COc1cccc2[nH]c3ccccc3c12` (centres unmarked) [Carvedilol], for which the inhibition at 10 µM is 104%.

In the case of `CN(C)CC/C=C1/c2ccccc2Sc2ccc(Cl)cc21` [Chlorprothixene hydrochloride], the inhibition at 10 µM is 77.4%.

Consider `CC(Cc1ccc(O)cc1)NCC(O)c1cc(O)cc(O)c1` (centres unmarked) [Fenoterol hydrobromide], for which the inhibition at 10 µM stood at 78.3%.

Turning to `CC(C)(C)NC[C@H](O)c1ccc(O)c(CO)c1` [Levalbuterol hydrochloride], the inhibition at 10 µM was determined as 85.3%.

In the case of `COc1ccc(C(=O)c2ccccc2O)c(O)c1` [Dioxybenzone], the inhibition at 10 µM was found to be 100%.

Turning to `O=C(Nc1ccccc1)OCC(CN1CCCCC1)OC(=O)Nc1ccccc1` (centres unmarked) [Diperodon hydrochloride], the inhibition at 10 µM stood at 92.2%.

Turning to `CCCCNc1ccc(C(=O)OCCOCCOCCOCCOCCOCCOCCOCCOCCOC)cc1` [Benzonatate], the inhibition at 10 µM turned out to be 79.9%.

As for `CC(NCCC(c1ccccc1)c1ccccc1)c1ccccc1` (centres unmarked) [Fendiline hydrochloride], the inhibition at 10 µM amounted to 91.3%.

In the case of `CCC(COC(=O)c1cc(OC)c(OC)c(OC)c1)(c1ccccc1)N(C)C` (centres unmarked) [Trimebutine], the inhibition at 10 µM stood at 88.7%.

As to `COc1cc2nc(N3CCN(C(=O)C4COc5ccccc5O4)CC3)nc(N)c2cc1OC` (centres unmarked) [Doxazosin mesylate], the inhibition at 10 µM came out at 76.1%.

As to `CC(COc1ccccc1)N(CCCl)Cc1ccccc1` (centres unmarked) [Phenoxybenzamine hydrochloride], the inhibition at 10 µM worked out at 86.1%.

In the case of `CN(C)CCCN1c2ccccc2Sc2ccccc21` [Promazine hydrochloride], the inhibition at 10 µM is 88.1%.

Regarding `CCOC(=O)Nc1ccc2c(c1)N(C(=O)CCN1CCOCC1)c1ccccc1S2` [Moricizine hydrochloride], the inhibition at 10 µM turned out to be 75.8%.

On to `[H]/N=C(/NCCCCC)N/N=C/c1c[nH]c2ccc(OC)cc12` [Tegaserod maleate], for which the inhibition at 10 µM amounted to 98.3%.

For `CN1CCN(CCCN2c3ccccc3Sc3ccc(C(F)(F)F)cc32)CC1` [Trifluoperazine dihydrochloride], the inhibition at 10 µM came to 79.1%.

With `CN(C(=O)CN(CCO)CC(=O)N(C)C(C)(C)Cc1ccccc1)C(C)(C)Cc1ccccc1` [Oxethazaine], the inhibition at 10 µM stood at 92.9%.

Regarding `C1CCC(C(CC2CCCCN2)C2CCCCC2)CC1` (centres unmarked) [Perhexiline maleate], the inhibition at 10 µM is 79.2%.

With `CNCCC=C1c2ccccc2CCc2ccccc21` [Nortriptyline hydrochloride], the inhibition at 10 µM was 85.9%.

For the compound `CN(C/C=C/c1ccccc1)Cc1cccc2ccccc12` [Naftifine hydrochloride], the inhibition at 10 µM turned out to be 96.1%.

As for `Cc1cccc(C)c1OCC(=O)N[C@@H](Cc1ccccc1)[C@@H](O)C[C@H](Cc1ccccc1)NC(=O)[C@H](C(C)C)N1CCCNC1=O` [Lopinavir], the inhibition at 10 µM was determined as 76.8%.

In the case of `CN(C)CCCOc1nn(Cc2ccccc2)c2ccccc12` [Benzydamine hydrochloride], the inhibition at 10 µM worked out at 83.6%.

In the case of `CC(C)(C)NC(=O)[C@@H]1C[C@@H]2CCCC[C@@H]2CN1C[C@@H](O)[C@H](Cc1ccccc1)NC(=O)[C@H](CC(N)=O)NC(=O)c1ccc2ccccc2n1` [Saquinavir mesylate], the inhibition at 10 µM was determined as 92.8%.

In the case of `Cc1cccc(C)c1NC(=O)CN1CCN(CCCC(c2ccc(F)cc2)c2ccc(F)cc2)CC1` [Lidoflazine], the inhibition at 10 µM is 92.7%.

In the case of `CCCCOc1ccc(C(=O)CCN2CCCCC2)cc1` [Dyclonine hydrochloride], the inhibition at 10 µM amounted to 99%.

As for `O=c1[nH]c2ccccc2n1C1CCN(CCCC(c2ccc(F)cc2)c2ccc(F)cc2)CC1` [Pimozide], the inhibition at 10 µM came out at 101%.

Turning to `OCc1cc(C(O)CNCCCCCCOCCCCc2ccccc2)ccc1O` (centres unmarked) [Salmeterol], the inhibition at 10 µM was determined as 99.6%.

Consider `Fc1ccc(C(c2ccc(F)cc2)N2CCN(C/C=C/c3ccccc3)CC2)cc1` [Flunarizine dihydrochloride], for which the inhibition at 10 µM is 96.6%.

On to `CCCOc1ccc(C(=O)OCCN(CC)CC)cc1N` [Proparacaine hydrochloride], for which the inhibition at 10 µM stood at 103%.

For the compound `CC(CN1c2ccccc2Sc2ccccc21)N(C)C` (centres unmarked) [Promethazine hydrochloride], the inhibition at 10 µM stood at 78.5%.

Regarding `COc1ccc(-c2cc(=S)ss2)cc1` [Anethole-trithione], the inhibition at 10 µM was 78.5%.

In the case of `CCCCCCCCNC(C)C(O)c1ccc(SC(C)C)cc1` (centres unmarked) [Suloctidil], the inhibition at 10 µM was found to be 93.8%.

In the case of `O=C(CCCN1CC=C(n2c(=O)[nH]c3ccccc32)CC1)c1ccc(F)cc1` [Droperidol], the inhibition at 10 µM stood at 87.6%.

As for `CN(C)CCC=C1c2ccccc2COc2ccccc21` [Doxepin hydrochloride], the inhibition at 10 µM is 88.7%.

With `CCc1nn(CCCN2CCN(c3cccc(Cl)c3)CC2)c(=O)n1CCOc1ccccc1` [Nefazodone hydrochloride], the inhibition at 10 µM was determined as 88.5%.

As to `CCN(CC)C(C)CN1c2ccccc2Sc2ccccc21` (centres unmarked) [Ethopropazine hydrochloride], the inhibition at 10 µM came out at 85.5%.

For `CCN(CC)CCOC(=O)C(c1ccccc1)C1CCCCC1` (centres unmarked) [Drofenine hydrochloride], the inhibition at 10 µM is 76.8%.

Take `CO[C@]12C[C@@H](COC(=O)c3cncc(Br)c3)CN(C)[C@@H]1Cc1cn(C)c3cccc2c13` [Nicergoline]: the inhibition at 10 µM came to 82.3%.

Turning to `C[C@H](N)[C@H](O)c1ccc(O)c(O)c1` [Levonordefrin], the inhibition at 10 µM came out at 107%.
